# Laboratory results taken from patent publication US6495580B1, “Compounds, compositions and methods for treating or preventing pneumovirus infection and associated diseases” (ViroPharma Incorporated, priority 1998, dated 2002).
# pIC50: −log10 of the molar value. Like-named read-outs stand apart in the source and are kept apart here.
# Tests used:
# Assay type in all cases: cell-based
# normal cells = assay: MTT cytotoxicity assay; conditions: highest compound concentration giving optical density ≧75% of control, 68 hours incubation
# Experimental: This assay measures cell viability, and therefore cytotoxicity, by quantitatively detecting the in situ reduction of 3-(4,5-dimethylthiazol-2-yl)-2,5-diphenyltetrazolium bromide (MTT) by viable cells. Cells are seeded in 96-well plates in DMEM containing 5% FBS at a density of 4×10^3 cells per well. After incubation for 4 hours at 37° C. and 5% CO2, 2-fold serial dilutions of compound in 1% DMSO (or solvent alone) are added to quadruplicate wells and the plates are incubated for an additional 68 hours at 37° C. and 5% CO2, which is equivalent to 3 to 4 cell doublings. The culture medium is removed, and the cells are treated with 1 mg/ml of MTT in phosphate-buffered saline, pH 7.2 for 4 hours at 37° C. and 5% CO2. After removal of the unreduced MTT, the reduced blue formazan crystals produced by the viable cells are solubilized by the addition of 0.04N HCl in isopropanol. The optical density at 570 nm (OD570) of each well is read using a suitable microplate reader. Cell viability is expressed as the percentage of optical density for compound-treated cells relative to the optical density of solvent alone-treated control wells. The highest compound concentration resulting in an optical density of≧75% of the control is represented as the cellular cytotoxicity value (CC75).
# ovine RSV = assay: Cell culture assay for inhibition of pneumovirus replication, ORSV; conditions: protection from cytopathic effect
# Experimental: (§1) The replication of many viruses may be quantitatively assessed in the laboratory in various cell or tissue culture systems. Such in vitro culture methodologies are available and useable by those skilled in the art for the propagation and quantitative measurement of the replication of pneumoviruses. The following procedure was used for the in vitro quantitative measure of RSV replication.
# (§2) Using the procedure described in this example, compounds of the present invention were evaluated for their ability to inhibit the replication of the virus in cell culture. By adding compounds at various concentrations to the culture medium, a dose response effect of the compound on virus replication was determined. A useful quantitative measure of the inhibition of RSV replication in this assay is the concentration of the compound at which virus replication in cell culture is inhibited by 50% in comparison to that observed in the absence of the compound (50% Inhibitory Concentration, IC50). In the case of RSV, IC50 values are defined as the concentration of compound that protected 50% of the cell monolayer. from virus-induced cytopathic effect (syncytia formation).
# (§3) Anti-pneumovirus compounds of the invention were screened for antiviral activity against RSV (strain Long) on cultured HEp2 cells. Standard 96-well culture plates were seeded with 4×10^4 HEp2 cells in 200 μL of Minimal Essential Medium with Earles salts (EMEM) supplemented with 10% fetal bovine serum (FBS). Twenty-four to 30 hours later, the cells were infected with a dilution of RSV in Medium 199 (GIBCO/BRL) with 5% FBS that had been titrated to yield>85% destruction of the cell monolayer in 60 hours. After 1 hour at […], compounds were added to wells of the plate in a final DMSO concentration of 0.5% as a series of 10 two-fold dilutions of the compound. Virus control wells (VC, no test compound) and cell culture control wells (CC, no virus, no test compound) were also included on each plate. Plates were incubated in a humidified atmosphere at 37° C. and 5% carbon dioxide. After 60 hours, 100 μL of a 5% solution of glutaraldehyde in water was added to each well, and the wells were incubated at room temperature for 1 hour. The fixative was removed, and the cells were stained with a 0.1% solution of crystal violet in water for 15-30 minutes. After rinsing and drying the plates, the optical density of the wells was measured at 570 nm (OD570).
# (§4) To determine IC50 values for the test compounds,the mean value of the OD570 readings of the virus control wells (VC) on a plate was substracted from the OD570 readings of all wells on that plate. The IC50 values were then calculated according to the following formula:
# (§5) IC50=[(Y—B)/(A—B)]×(H—L)+L
# (§6) where Y represents the mean OD570 reading of the cell control wells (CC) divided by 2; B represents the mean OD570 reading of wells of the compound dilution nearest to and below Y; A represents the mean OD570 reading of wells of the compound dilution nearest to and above Y; L represents the compound concentration at B; and H represents the compound concentration at A.
# (§7) A similar assay is useful for various strains of human RSV, including subtype A and subtype B viruses, as well as other pneumoviruses.
# human RSV subtype B = assay: Cell culture assay for inhibition of pneumovirus replication, RSV-B; conditions: protection from cytopathic effect
# Experimental: as §1, §2, §3, §4, §5, §6, §7
# bovine RSV = assay: Cell culture assay for inhibition of pneumovirus replication, BRSV; conditions: protection from cytopathic effect
# Experimental: as §1, §2, §3, §4, §5, §6, §7
# human RSV subtype A = assay: Cell culture assay for inhibition of pneumovirus replication (protection from virus-induced cytopathic effect), RSV-A
# Experimental: as §1, §2, §3, §4, §5, §6, §7
# goat RSV = assay: Cell culture assay for inhibition of pneumovirus replication, GRSV; conditions: protection from cytopathic effect
# Experimental: as §1, §2
# Anti-pneumovirus compounds of the invention were screened for antiviral activity against RSV (strain Long) on cultured HEp2 cells. […] After rinsing and drying the plates, the optical density of the wells was measured at 570 nm (OD570).
# To determine IC50 values for the test compounds,the mean value of the OD570 readings of the virus control wells (VC) on a plate was substracted from the OD570 readings of all wells on that plate. The IC50 values were then calculated according to the following formula: […]
# as §6, with “A. […]” for “A.”
# [1] = Activity against human RSV subtype A (Table 2), values marked 2: protection achieved only 70-90% at highest concentrations tested, read-out: IC50
# [2] = human RSV subtype A, concentration protecting 50% of cell monolayer from virus-induced cytopathic effect, HEp2 cells, 60 hours, read-out: IC50 RSV-A
# [3] = human respiratory syncytial virus
smiles,measurement,setting,value
"Nc1nnnn1N=Cc1ccc(O)c(C(c2ccc(O)cc2)c2cc(C=Nn3nnnc3N)ccc2O)c1 (stereo not drawn) [Example 1, 5,5′-Bis[1-(((5-amino-1H-tetrazolyl)imino)methyl)]2,2′,4″-methylidynetrisphenol]",CC75,normal cells,>12500 nM
same,pIC50,ovine RSV,8.70
same,pIC50,human RSV subtype B,8.10
same,pIC50,bovine RSV,8.52
same,pIC50,human RSV subtype A; [1],9.00
same,pIC50,human RSV subtype A; [2],9.00
same,pIC50,goat RSV,9.00
"COc1ccc(C(c2ccc(C=Nn3nnnc3N)cc2O)c2ccc(C=Nn3nnnc3N)cc2O)cc1 (stereo not drawn) [Example 2, 5,5′-Bis[1-(((5-amino-1H-tetrazolyl)imino)methyl)]-4″-methoxyphenyl-2,2′-benzylidenebisphenol]",CC75,normal cells,>150000 nM
same,pIC50,human RSV subtype B,8.10
same,pIC50,bovine RSV,9.00
same,pIC50,human RSV subtype A; [1],9.00
same,pIC50,human RSV subtype A; [2],9.00
"Nc1ncnn1N=Cc1ccc(O)c(C(c2ccc(O)cc2)c2cc(C=Nn3ncnc3N)ccc2O)c1 (stereo not drawn) [Example 3, 5,5′-Bis[1-(((5-amino-1H-1,2,4 triazolyl)imino)methyl)]-2,2′, 4″t-methylidyne trisphenol]",CC75,normal cells,12500 nM
same,pIC50,ovine RSV,6.77
same,pIC50,human RSV subtype B,6.34
same,pIC50,bovine RSV,8.00
same,pIC50,human RSV subtype A; [1],7.30
same,pIC50,human RSV subtype A; [2],7.30
"Nc1nncn1N=Cc1ccc(O)c(C(c2ccc(O)cc2)c2cc(C=Nn3cnnc3N)ccc2O)c1 (stereo not drawn) [Example 4, 5,5′-Bis[4-(((3-amino-4H-1,2,4-triazolyl)imino)methyl)]-2,2′,4″-methylidyne trisphenol]",CC75,normal cells,18800 nM
same,pIC50,human RSV subtype B,6.82
same,pIC50,bovine RSV,6.57
same,pIC50,human RSV subtype A; [1],6.96
same,pIC50,human RSV subtype A; [2],6.96
"Nc1nnn(N=Cc2ccc(C(c3ccc(O)cc3)c3ccc(C=Nn4nnc(N)n4)cc3O)c(O)c2)n1 (stereo not drawn) [Example 5, 5,5′-Bis[2-(((5-amino-2H-tetrazolyl)imino)methyl)]-2,2′,4″-methylidynetrisphenol]",CC75,normal cells,>50000 nM
same,pIC50,ovine RSV,5.92
same,pIC50,human RSV subtype B,5.72
same,pIC50,bovine RSV,5.77
same,pIC50,human RSV subtype A; [1],7.05
same,pIC50,human RSV subtype A; [2],7.05
"Cc1nnnn1/N=C/c1ccc(O)c(C(c2ccc(O)cc2)c2cc(/C=N/n3nnnc3C)ccc2O)c1 [Example 6, 5,5′-Bis[1-(((5-methyl-1H-tetrazolyl)imino)methyl)]-2,2′,4″-methylidynetrisphenol]",CC75,normal cells,3100 nM
same,pIC50,ovine RSV,9.00
same,pIC50,human RSV subtype B,8.70
same,pIC50,bovine RSV,9.00
same,pIC50,human RSV subtype A; [1],9.00
same,pIC50,human RSV subtype A; [2],9.00
same,pIC50,goat RSV,9.00
"Nc1nnnn1N=Cc1ccc(C(c2ccccc2)c2ccc(C=Nn3nnnc3N)cc2O)c(O)c1 (stereo not drawn) [Example 7, 5,5′-Bis[1-(((5-amino-1H-tetrazolyl)imino)methyl)]-2,2′-benzylidenebisphenol]",CC75,normal cells,>6300 nM
same,pIC50,human RSV subtype A; [1],9.00
same,pIC50,human RSV subtype A; [2],9.00
Nc1nnnn1N=Cc1ccc(O)c(Cc2cc(C=Nn3nnnc3N)ccc2O)c1 [Example 8],CC75,normal cells,9400 nM
same,pIC50,human RSV subtype B,4.33
same,pIC50,bovine RSV,4.79
same,pIC50,human RSV subtype A; [1],6.43
same,pIC50,human RSV subtype A; [2],6.43
"NC(=O)c1ncn([C@@H]2O[C@H](CO)[C@@H](O)[C@H]2O)n1 [Ribavirin, 1-beta-D-ribofuranosyl-1H-1,2,4-triazole-3-carboxamide, reference compound]",CC75,normal cells,9400 nM
same,pIC50,ovine RSV; [3],4.81
same,pIC50,human RSV subtype B; [3],4.75
same,pIC50,bovine RSV; Bovine orthopneumovirus,5.12
same,pIC50,"human RSV subtype A; human respiratory syncytial virus, HEp-2, human RSV subtype A, concentration protecting 50% of cell monolayer from virus-induced cytopathic effect, HEp2 cells, 60 hours, read-out: IC50 RSV-A",4.61
same,pIC50,"human RSV subtype A; human respiratory syncytial virus, Activity against human RSV subtype A (Table 2), values marked 2: protection achieved only 70-90% at highest concentrations tested, read-out: IC50",4.61
same,pIC50,goat RSV,5.48
